Source: patent publication US10183962B2, “Synthetic oligomers of Neisseria meningitis serogroup X and process of preparing them” (MSD WELLCOME TRUST HILLEMAN LA[…]. LTD., priority 2014, dated 2019)

Tested on: rabbit antiserum against N. meningitidis serogroup X (anti-Men-X antibodies binding to bacterial Men-X polysaccharide)
Assay: competition (inhibition) ELISA, antigenicity of synthetic Men-X tetramer and its TT conjugate
Settings: antigen at 10-1000 μg oligosaccharide/ml; antiserum diluted eight thousand fold; relative to no antigen control; FIG. 1, alpha anomer, triplicate

Question: With “6-Aminohexyl (2-acetamido-2-deoxy-α-D-glucopyranosyl phosphate)-(1→4)-(2-acetamido-2-deoxy-α-D-glucopyranosyl phosphate)-(1→4)-(2-acetamido-2-deoxy-α-D-glucopyranosyl phosphate)-(1→4)-2-acetamido-2-deoxy-α-D-glucopyranoside, tris-sodium salt [Men X Tetramer 1]” as the substance, how does the “percentage inhibition of binding of anti-Men-X antibodies to bacterial Men-X polysaccharide coated on plate” value read?
Answer: Its value is “up to 68%”.
